Test results from patent US9999650B2, “Peptide and peptidomimetic inhibitors” (Ra Pharmaceuticals, Inc., priority 2012, dated 2018).
Numbered stars: 1 amine (or outer) side, 2 acyl side, 3 side chain; on linkers, the order of the positions; unused ones are H or OH. Bridge positions count the residues as written; N and C are the ends. Square brackets hold non-standard residues; d marks the D form. Peptide text beside a SMILES is read from it. Ala(1H-tetrazol-5-yl) = N[C@@H](Cc1nnn[nH]1)C(=O)O; Trp(5-Cl) = N[C@@H](Cc1c[nH]c2ccc(Cl)cc12)C(=O)O; Phe(4-Cl) = N[C@@H](Cc1ccc(Cl)cc1)C(=O)O; X1 = O=C(C(N[*:1])C1CCc2ccccc2C1)[*:2]; X3 = O=C(C(Cc1ccc(Br)s1)N[*:1])[*:2]; mXylylene = c1cc(C[*:1])cc(C[*:2])c1; X2 = O=C(Cc1cccc(C[*:2])c1)[*:1]; dPhg = N[C@@H](C(=O)O)c1ccccc1; Chg = N[C@H](C(=O)O)C1CCCCC1; Pen = CC(C)(S)[C@H](N)C(=O)O; Tle = CC(C)(C)[C@H](N)C(=O)O; αMeP = C[C@@]1(C(=O)O)CCCN1; Ac5c = NC1(C(=O)O)CCCC1; Dab = NCC[C@H](N)C(=O)O; Nva = CCC[C@H](N)C(=O)O; Mpa = O=C(O)CCS

Target: T1, human plasma kallikrein (Homo sapiens, UniProt P03952)
T1 construct: purchased Enzyme Research Laboratories HPKa 1303
T1 sequence (P03952 20-390 limits assumed): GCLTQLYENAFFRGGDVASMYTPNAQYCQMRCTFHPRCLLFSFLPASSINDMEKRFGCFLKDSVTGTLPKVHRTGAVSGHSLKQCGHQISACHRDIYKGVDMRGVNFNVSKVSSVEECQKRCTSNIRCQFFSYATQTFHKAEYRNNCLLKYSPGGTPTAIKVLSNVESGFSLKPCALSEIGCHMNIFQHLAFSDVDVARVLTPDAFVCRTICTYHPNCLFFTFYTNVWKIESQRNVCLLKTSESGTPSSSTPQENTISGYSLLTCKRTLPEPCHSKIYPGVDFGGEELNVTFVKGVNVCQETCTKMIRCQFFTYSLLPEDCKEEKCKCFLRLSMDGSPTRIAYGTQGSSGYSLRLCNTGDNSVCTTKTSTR
T1 sequence (P03952 391-638 limits assumed): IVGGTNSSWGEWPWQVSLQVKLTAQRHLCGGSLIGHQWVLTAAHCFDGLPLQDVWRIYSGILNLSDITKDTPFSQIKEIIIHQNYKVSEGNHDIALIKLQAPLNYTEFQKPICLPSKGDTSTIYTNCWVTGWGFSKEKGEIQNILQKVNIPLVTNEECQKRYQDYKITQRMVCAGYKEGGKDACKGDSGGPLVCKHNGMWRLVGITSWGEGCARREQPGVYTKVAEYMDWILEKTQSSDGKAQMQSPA
Assay: Enzyme inhibition assay (fluorogenic substrate H-Pro-Phe-Arg-AMC)
Type: biochemical
Conditions: Kallikrein inhibitory activity; 1 nM activated human kallikrein, 500 μM H-Pro-Phe-Arg-AMC, 1 hour room temperature; read-out: Avg. IC50
Procedure: Activated human plasma kallikrein (Enzyme Research Laboratories, HPKa 1303) was reacted with H-Pro-Phe-Arg-7-amido-4-methylcoumarin (H-Pro-Pre-Arg-AMC) (a fluorogenic substrate for plasma as well as pancreatic and urinary kallikreins; Bachem I-1295) and candidate inhibitory peptides to determine the IC50 of the inhibitor.
Ten 8-fold serial dilutions of peptides (10 mM DMSO stocks) were performed in DMSO and then added to TCNB (50 mM Tris-HCl pH 7.2, 150 mM NaCl, 10 mM CaCl2, 0.05% Brij-35) and sonicated. 50 μL of the peptide dilutions were added to microtitre plates (96 well, black non-binding surface, Corning, 3650) and incubated for 5 minutes at room temperature with 4 nM activated human kallikrein (final concentration after addition of fluorogenic substrate: 1 nM). The samples were then incubated for 1 hour at room temperature with 2 mM H-Pro-Phe-Arg-AMC (final concentration 500 μM). Relative Fluorescence Units (RFU) were measured at excitation/emission 360 nm/460 nm by a SpectraMax M3.

SMILES | IC50
CC[C@@H](C)[C@@H]1NC(=O)CCCCCCC/C=C/C[C@@H](C(=O)N[C@@H](CCCNC(=N)N)C(=O)N[C@H](C(N)=O)C(C)C)NC1=O [Compound R2240] | > 75000 nM
CC(C)(C)[C@H](NC(=O)[C@H](CCCNC(=N)N)NC(=O)[C@@H]1CSCc2cccc(c2)CSCCC(=O)N2CCC[C@H]2C(=O)NC(C2CCc3ccccc3C2)C(=O)N1)C(N)=O (stereo partly shown) [Compound R2266] ([Mpa]P[X1]CR[Tle]-NH2; linker 1-4 via mXylylene) | 118 nM
CC(=O)N[C@@H](CS)C(=O)N[C@@H](CC(N)=O)C(=O)N[C@@H](Cc1ccc(O)cc1)C(=O)N[C@@H](Cc1c[nH]c2ccccc12)C(=O)N[C@H](CO)C(=O)N1CCC[C@H]1C(=O)N[C@@H](Cc1c[nH]c2ccccc12)C(=O)N[C@H](C(=O)N[C@@H](C)C(=O)N[C@@H](CS)C(N)=O)[C@@H](C)O [Compound R2230, Ac-CNYWsPWTAC-NH2] (Ac-CNYW[dS]PWTAC-NH2) | > 6580 nM
CC(C)(C)[C@H](NC(=O)[C@H](CCCNC(=N)N)NC(=O)[C@@H]1CSCc2cccc(c2)CC(=O)NCC(=O)N2CCC[C@H]2C(=O)N[C@@H](C2CCCCC2)C(=O)N1)C(N)=O [Compound R2265] (GP[Chg]CR[Tle]-NH2; linker N-4 via X2) | 39.2 nM
CC(C)(C)[C@H](NC(=O)[C@H](CCCNC(=N)N)NC(=O)[C@@H]1COCc2cn(nn2)CCCCC(=O)N2CCC[C@H]2C(=O)N[C@@H](C2CCCCC2)C(=O)N1)C(N)=O [Compound R2252] | > 100000 nM
CC(C)[C@H](NC(=O)[C@H](CCCNC(=N)N)NC(=O)[C@@H]1CSCc2cccc(c2)CSCCC(=O)N2CCC[C@H]2C(=O)N[C@@H](C2CCCCC2)C(=O)N1)C(=O)O [Compound R2183, [mXylyl(1,4)](des-NH2)C-P-Chg-CR-V-OH] ([Mpa]P[Chg]CRV-OH; linker 1-4 via mXylylene) | > 3500 nM
CC(C)(C)[C@H](NC(=O)[C@H](Cc1ccc(Cl)cc1)NC(=O)[C@@H]1CSCc2cccc(c2)CSCCC(=O)N2CCC[C@H]2C(=O)N[C@H](c2ccccc2)C(=O)N1)C(N)=O [Compound R2206, [mXylyl(1,4)](des-NH2)C-P-(D)Phg-C-4-Cl-Phe-Tbg-NH2] ([Mpa]P[dPhg]C[Phe(4-Cl)][Tle]-NH2; linker 1-4 via mXylylene) | > 75000 nM
CC(C)(C)[C@H](NC(=O)[C@H](CCN)NC(=O)[C@@H]1CSCc2cccc(c2)CSCCC(=O)N2CCC[C@H]2C(=O)N[C@H](c2ccccc2)C(=O)N1)C(N)=O [Compound R2212, [mXylyl(1,4)](des-NH2)C-P-(D-Phg)-C-Dab-Tbg-NH2] ([Mpa]P[dPhg]C[Dab][Tle]-NH2; linker 1-4 via mXylylene) | > 100000 nM
CC(C)(C)[C@H](NC(=O)[C@H](CCCNC(=N)N)NC(=O)[C@@H]1CSCc2cccc(c2)CSCCC(=O)N2CCC[C@@]2(C)C(=O)N[C@@H](C2CCCCC2)C(=O)N1)C(N)=O [Compound R2180, [mXylyl(1,4)](des-NH2)C-(a-Me)P-Chg-CR-Tbg-NH2] ([Mpa][αMeP][Chg]CR[Tle]-NH2; linker 1-4 via mXylylene) | 6.8 nM
CCC[C@H](N)C(=O)N[C@@H]1C(=O)N[C@@H](CCC(=O)O)C(=O)N[C@@H](CO)C(=O)N[C@@H]([C@@H](C)CC)C(=O)N[C@H](C(=O)N[C@@H](CCCNC(=N)N)C(=O)N[C@H](C(N)=O)C(C)C)C(C)(C)SCc2cccc(c2)CSC1(C)C [Compound R2034, [mXylyl(2,6)]Nvl-Pen-ESI-Pen-RV-NH2] (H-[Nva][Pen]ESI[Pen]RV-NH2; linker 2-6 via mXylylene) | > 100000 nM
CC(C)(C)[C@H](NC(=O)[C@H](CCCNC(=N)N)NC(=O)[C@@H]1CCCc2cn(nn2)CCCCC(=O)N2CCC[C@H]2C(=O)N[C@@H](C2CCCCC2)C(=O)N1)C(N)=O [Compound R2253] | > 100000 nM
CC(=O)N[C@@H](CS)C(=O)N[C@@H](CC(N)=O)C(=O)N[C@@H](Cc1ccc(O)cc1)C(=O)N[C@@H](Cc1c[nH]c2ccccc12)C(=O)N[C@@H](CO)C(=O)N1CCC[C@H]1C(=O)N[C@@H](Cc1c[nH]c2ccccc12)C(=O)N[C@H](C(=O)N[C@@H](CCC(=O)O)C(=O)N[C@@H](CS)C(=O)N[C@@H](CO)C(=O)N[C@@H](C)C(N)=O)[C@@H](C)O [Compound R2116, Ac-CNYWSPWTECSA-NH2] (Ac-CNYWSPWTECSA-NH2) | 3.5 nM
CC(=O)N[C@@H](CS)C(=O)N[C@@H](CC(N)=O)C(=O)N[C@H](Cc1ccc(O)cc1)C(=O)N[C@@H](Cc1c[nH]c2ccccc12)C(=O)N[C@@H](CO)C(=O)N1CCC[C@H]1C(=O)N[C@@H](Cc1c[nH]c2ccccc12)C(=O)N[C@H](C(=O)N[C@@H](C)C(=O)N[C@@H](CS)C(N)=O)[C@@H](C)O [Compound R2232, Ac-CNyWSPWTAC-NH2] (Ac-CN[dY]WSPWTAC-NH2) | > 1950 nM

Other lines, results leading:

IC50 | SMILES
13 nM | CC[C@H](C)[C@@H]1NC(=O)[C@H](CO)NC(=O)[C@H](Cc2nn[nH]n2)NC(=O)[C@@H](NC(=O)[C@@H](N)CCSC)CSCc2cccc(c2)CSC[C@@H](C(=O)N[C@@H](CCCNC(=N)N)C(=O)N[C@H](C(N)=O)C(C)C)NC1=O [Compound R2020, [mXylyl(2,6)]MC-Asp(T)-SICRV-NH2] (H-MC[Ala(1H-tetrazol-5-yl)]SICRV-NH2; linker 2-6 via mXylylene)
127 nM | CC(=O)N[C@@H](CS)C(=O)N[C@@H](CC(N)=O)C(=O)N[C@@H](Cc1ccc(O)cc1)C(=O)N[C@@H](Cc1c[nH]c2ccccc12)C(=O)N[C@@H](C)C(=O)N1CCC[C@H]1C(=O)N[C@@H](Cc1c[nH]c2ccccc12)C(=O)N[C@H](C(=O)N[C@@H](CCC(=O)O)C(=O)N[C@@H](CS)C(N)=O)[C@@H](C)O [Compound R2131, Ac-CNYWAPWTEC-NH2] (Ac-CNYWAPWTEC-NH2)
3.2 nM | CNC(=O)[C@@H](NC(=O)[C@H](CCCNC(=N)N)NC(=O)[C@@H]1CSCc2cccc(c2)CSCCC(=O)NC2(CCCC2)C(=O)N[C@@H](C)C(=O)N[C@@H](C2CCCCC2)C(=O)N1)C(C)C [Compound R2178, [mXylyl(1,5)](des-NH2)C-(Cyclo-L)-A-Chg-CR-V-NHCH3] ([Mpa][Ac5c]A[Chg]CRV-NHMe; linker 1-5 via mXylylene)
> 10600 nM | CC(=O)N[C@@H](CS)C(=O)N[C@@H](CC(N)=O)C(=O)N[C@@H](Cc1ccc(O)cc1)C(=O)N[C@@H](Cc1c[nH]c2ccccc12)C(=O)N[C@@H](CO)C(=O)N1CCC[C@H]1C(=O)N[C@H](Cc1c[nH]c2ccccc12)C(=O)N[C@H](C(=O)N[C@@H](C)C(=O)N[C@@H](CS)C(N)=O)[C@@H](C)O [Compound R2228, Ac-CNYWSPwTAC-NH2] (Ac-CNYWSP[dW]TAC-NH2)
> 75000 nM | CC(C)(C)[C@H](NC(=O)[C@H](Cc1c[nH]c2ccc(Cl)cc12)NC(=O)[C@@H]1CSCc2cccc(c2)CSCCC(=O)N2CCC[C@H]2C(=O)N[C@H](c2ccccc2)C(=O)N1)C(N)=O [Compound R2210, [mXylyl(1,4)](des-NH2)C-P-(D-Phg)-C-5-C1-Trp-Tbg-NH2] ([Mpa]P[dPhg]C[Trp(5-Cl)][Tle]-NH2; linker 1-4 via mXylylene)
> 100000 nM | CC(C)(C)[C@H](NC(=O)C(Cc1ccc(Br)s1)NC(=O)[C@@H]1CSCc2cccc(c2)CSCCC(=O)N2CCC[C@H]2C(=O)N[C@H](c2ccccc2)C(=O)N1)C(N)=O (stereo partly drawn) [Compound R2220, [mXylyl(1,4)](des-NH2)C-P-(D-Phg)-C-ABP-Tbg-NH2] ([Mpa]P[dPhg]C[X3][Tle]-NH2; linker 1-4 via mXylylene)
